According to patent US20170172955A1, “Treatment of Mixed Dyslipidemia” (priority 2015, published 2017):
Where two headings read alike, the source gives them in different places.

Tests used:
fibrinogen = test: Fibrinogen levels in humans, post hoc analysis of study A4141001; format: in vivo, human; parameters: Mean Final FIBR / Mean Change FIBR: unit not given here; details: for Change in Fibrinogen, Difference (Gem - Placebo): MITT; for Fibrinogen Change, Difference (Gem-placebo) / Mean % Change FIBR / Mean Change FIBR / Mean Final FIBR / Fibrinogen Change, LS Mean (SE): subjects with fibrinogen baseline >400 mg/dL
Experimental: Week 0) and the end (Visit T8, Week 8). Analyses of covariance (ANCOVA) methods used in the original study A4141001 were again utilized in these analyses. For fibrinogen, baseline was defined as the last pretreatment visit, and endpoint was the last visit up to and including the day after last dose of medication. The least-squares means and p-values for change from baseline in fibrinogen were calculated using an ANCOVA model with the effects of baseline lipid value and treatment. Also, medians and p-values for percent change from baseline. […] This, consequently, was the definition for the modified intent-to treat (MITT) population.

CYP2A6 = target: T1, CYP2A6 (Homo sapiens, UniProt P11509); test: biochemical
T1 sequence (P11509 1-494): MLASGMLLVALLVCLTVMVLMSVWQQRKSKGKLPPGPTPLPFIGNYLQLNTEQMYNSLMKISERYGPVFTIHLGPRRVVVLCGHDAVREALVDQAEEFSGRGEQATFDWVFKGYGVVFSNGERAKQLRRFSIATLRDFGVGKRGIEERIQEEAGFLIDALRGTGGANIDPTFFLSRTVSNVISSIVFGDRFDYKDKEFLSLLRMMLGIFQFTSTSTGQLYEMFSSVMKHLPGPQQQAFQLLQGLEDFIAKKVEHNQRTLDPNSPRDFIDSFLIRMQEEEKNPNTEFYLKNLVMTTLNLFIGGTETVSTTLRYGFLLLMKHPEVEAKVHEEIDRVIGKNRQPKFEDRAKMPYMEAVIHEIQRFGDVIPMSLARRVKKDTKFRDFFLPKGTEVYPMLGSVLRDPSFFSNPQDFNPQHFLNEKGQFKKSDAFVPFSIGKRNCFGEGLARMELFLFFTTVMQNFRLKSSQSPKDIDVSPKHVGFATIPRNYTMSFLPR
Experimental: (§1) Human livers, HLM141, HLM143, and HLM144 were selected from the University of Washington Human Liver Bank for this study. […] The actual concentrations used for each of the other probes are specified below. […] The seven isoforms and the metabolic pathway of each of the probes used to monitor specific isoform activity are listed below.
CYP2A6: The 7-hydroxylation of coumarin (4 μM). The reaction is monitored by HPLC using florescence detection.

[1] = tested on: cholesterol and triglyceride synthesis; test: Inhibition of plasma and hepatic cholesterol and triglyceride synthesis in apoB100/Lp(a) mice; format: in vivo, mouse
Experimental: The apoB100/Lp(a) (cross of mice transgenic for human apoB100 and human apo(a)) mice) were obtained from Charles River. There were 8 animals per treatment group. […] Mice were acclimated for a minimum of 7 days to a reverse 12 hour light/12 hour dark cycle prior to administration of the first dose of test drug or vehicle. […] Test drugs and vehicle were given once daily. Thirty minutes after the eighth dose, 12.5 μCi [^14C] sodium acetate was administered. […] Individual plasma samples were acquired by placing whole blood samples into EDTA loaded centrifuge tubes and centrifuged. Plasma was transferred to new tubes and stored at −20° C. until assayed for [^14C] labeled cholesterol. Liver samples were flash frozen in liquid nitrogen and stored at −80° C. until assayed for [^14C] labeled cholesterol and triglycerides. Assay for plasma [^14C] labeled cholesterol. […] Additionally, 0.025 μCi […] (Perkin Elmer Life Sciences Inc. Boston, Mass.) was added to each sample, and to 2 or 3 spike controls in 7-mL scintillation vials, as an extraction internal standard. […] Samples were vortexed and saponified at 75° C. for 1 hour. After the samples cooled […] [^14C] labeled cholesterol was extracted with 2.5 mL petroleum ether per sample and shaken for 10 minutes, and then centrifuged for 10 minutes at 0° C. […] Each sample was then dissolved in 0.25 mL of 2 parts chloroform to 1 part per methanol by sonication. Five mL scintillant was added to each sample and the spike controls for direct [^3H] and [^14C] […] per minute (DPM) recording using a Packard 2500TR Tri-Carb Liquid Scintillation Analyzer. […] Assay for liver [^14C] labeled cholesterol and triglycerides. Frozen liver samples were kept on dry ice during sample weighing procedures and assay preparations. Each sample was homogenized in a solution of ice-cold methanol;0.5 N acetic acid. […] Samples were then vortexed and centrifuged for 20 minutes at 3000 rpm at room temperature to separate the phases. The lower chloroform layer was transferred to new vials. The remaining upper aqueous phase was extracted in like manner with 15 mL chloroform 2 more times. […] The aqueous phase was discarded and the chloroform phase was washed 2 times in like manner with 15 mL 1 part methanol to 1 part water, discarding the aqueous phase. The chloroform samples were evaporated under nitrogen gas, and resuspended in 600 μL chloroform and 30 μL removed for scintillation counting. Sample volumes were adjusted for corrected percent recovery and a calculated volume to load based on total liver weight. Calculated volumes were spotted onto TLC plates and dried in an 80° C. oven. After the plates had cooled to room temperature, they were developed in 102 mL isooctane:diethyl ether:glacial acetic acid, 75:25:2, respectively. Plates were dried in an 80° C. oven and allowed to cool to room temperature, wrapped in plastic wrap, and exposed to the phosphorimager screen. Imagequant software was used to quantitate cholesterol and triglyceride bands.

CYP2D6 = CYP2D6 (Homo sapiens, UniProt P10635); test: biochemical
Experimental: as §1
CYP2D6: The O-demethylation of dextromethorphan (5 μM). The reaction is monitored by high performance liquid chromatography (HPLC) using florescence detection.

CYP1A2 = CYP1A2 (Homo sapiens, UniProt P05177); test: biochemical
Experimental: as §1
CYP1A2: The 6-hydroxylation of high concentrations (0.5 mM) of (R)-warfarin. The reaction is monitored by quantitative gas chromatographic/mass spectrometric (GC/MS) using 6-hydroxywarfarin-(d5-phenyl) as the internal standard.

[2] = 100 mg/kg oral once daily, 8 doses

CYP2D6, sequence (P10635 whole entry): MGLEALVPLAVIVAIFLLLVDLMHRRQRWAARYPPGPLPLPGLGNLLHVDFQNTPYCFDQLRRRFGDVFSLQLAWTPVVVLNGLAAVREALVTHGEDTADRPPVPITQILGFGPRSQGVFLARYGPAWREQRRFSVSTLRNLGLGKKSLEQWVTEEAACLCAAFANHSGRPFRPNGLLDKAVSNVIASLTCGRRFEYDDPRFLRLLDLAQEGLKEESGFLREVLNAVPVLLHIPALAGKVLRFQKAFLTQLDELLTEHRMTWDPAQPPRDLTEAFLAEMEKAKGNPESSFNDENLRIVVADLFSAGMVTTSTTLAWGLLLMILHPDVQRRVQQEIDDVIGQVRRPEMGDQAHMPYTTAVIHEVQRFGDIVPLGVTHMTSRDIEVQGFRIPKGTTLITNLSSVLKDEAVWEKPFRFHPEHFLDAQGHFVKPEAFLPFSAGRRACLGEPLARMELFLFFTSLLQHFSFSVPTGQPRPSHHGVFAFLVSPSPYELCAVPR
CYP1A2, sequence (P05177 whole entry): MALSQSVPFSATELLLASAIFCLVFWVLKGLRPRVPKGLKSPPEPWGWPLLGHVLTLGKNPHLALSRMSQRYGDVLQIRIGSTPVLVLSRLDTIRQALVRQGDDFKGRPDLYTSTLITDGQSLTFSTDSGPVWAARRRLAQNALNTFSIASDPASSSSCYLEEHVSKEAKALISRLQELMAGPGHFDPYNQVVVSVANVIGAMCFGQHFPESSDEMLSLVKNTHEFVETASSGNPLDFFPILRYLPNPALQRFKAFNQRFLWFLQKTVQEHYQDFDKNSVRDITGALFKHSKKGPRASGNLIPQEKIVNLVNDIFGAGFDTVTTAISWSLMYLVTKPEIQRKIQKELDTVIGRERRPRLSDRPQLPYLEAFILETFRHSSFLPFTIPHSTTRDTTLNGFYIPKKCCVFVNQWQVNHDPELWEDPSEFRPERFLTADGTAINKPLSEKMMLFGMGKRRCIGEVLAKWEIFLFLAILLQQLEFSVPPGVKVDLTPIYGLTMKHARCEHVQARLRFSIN

In the case of `CC(C)(CCCCOCCCCC(C)(C)C(=O)O)C(=O)O` [Gemcabene, 6,6′-oxybis(2,2-dimethylhexanoic acid)], the “Change in Fibrinogen, Difference (Gem - Placebo)” value (shortened to “Change in Fibrinogen, Difference”) (fibrinogen; gemcabene 300 mg) is reported as −13.0, the “Change in Fibrinogen, Difference” value (fibrinogen; gemcabene 600 mg) is reported as −13.6 and the “Change in Fibrinogen, Difference” value (fibrinogen; gemcabene 900 mg) is reported as −24.3. The “Fibrinogen Change, Difference (Gem-placebo)” value (from here on “Fibrinogen Change, Difference”) (fibrinogen; gemcabene 300 mg) was 5.0, the “Mean % Change FIBR” value (fibrinogen; gemcabene 300 mg) was 6.7% and the “Mean Change FIBR” value (fibrinogen; gemcabene 300 mg) was 26.6. The “Mean Final FIBR” value (fibrinogen; gemcabene 300 mg) was 454.4, the “Fibrinogen Change, LS Mean (SE)” value (fibrinogen; gemcabene 300 mg monotherapy) was 26.0 (29.3) and the “Fibrinogen Change, Difference” value (fibrinogen; gemcabene 600 mg) was −62.5. For the same compound, the “Mean % Change FIBR” value (fibrinogen; gemcabene 600 mg) was −9.3%, the “Mean Change FIBR” value (fibrinogen; gemcabene 600 mg) was −41.4 and the “Mean Final FIBR” value (fibrinogen; gemcabene 600 mg) was 411.0. The “Fibrinogen Change, LS Mean (SE)” value (fibrinogen; gemcabene 600 mg monotherapy) was −41.5 (28.9), the “Fibrinogen Change, Difference” value (fibrinogen; gemcabene 900 mg) was −34.0 and the “Mean % Change FIBR” value (fibrinogen; gemcabene 900 mg) was −3.2%. The “Mean Change FIBR” value (fibrinogen; gemcabene 900 mg) was −12.9, the “Mean Final FIBR” value (fibrinogen; gemcabene 900 mg) was 435.9 and the “Fibrinogen Change, LS Mean (SE)” value (fibrinogen; gemcabene 900 mg monotherapy) was −13.0 (22.9). For the same compound, the “Mean % Change FIBR” value (fibrinogen; gemcabene at any of the doses) was −2.2%, the “Mean Change FIBR” value (fibrinogen; gemcabene at any of the doses) was −9.8 and the “Mean Final FIBR” value (fibrinogen; gemcabene at any of the doses) was 434.1. For the same compound, the IC50 (CYP2A6) was > 1.5 mM, the IC50 (CYP2A6; human, microsomes) was > 1.5 mM and the “inhibition of cholesterol synthesis as measured in plasma” value ([1]; 100 mg/kg) was 60%. The “inhibition of newly synthesized cholesterol in liver tissue” value ([1]; 100 mg/kg) was 65%, the “inhibition of newly synthesized triglycerides in liver tissue” value ([1]; 100 mg/kg) was 66% and the “hepatic Cholesterol synthesis ([14C] sodium acetate), % Change from Vehicle” value [1, 2] was −65 ± 11 %. For the same compound, the “hepatic Triglycerides synthesis ([14C] sodium acetate), % Change from Vehicle” value [1, 2] was −66 ± 6 %, the IC50 (CYP2D6) was > 1.5 mM and the IC50 (CYP2D6; human, microsomes) was > 1.5 mM. The IC50 (CYP1A2) was > 1.5 mM and the IC50 (CYP1A2; human, microsomes) was > 1.5 mM.
